Measurements published in ChEMBL document CHEMBL1129588, “Development of potent thrombin receptor antagonist peptides” (J Med Chem, 1996).

Target: T1, Proteinase-activated receptor 1 (Homo sapiens, UniProt P25116)
T1 sequence (P25116 whole entry): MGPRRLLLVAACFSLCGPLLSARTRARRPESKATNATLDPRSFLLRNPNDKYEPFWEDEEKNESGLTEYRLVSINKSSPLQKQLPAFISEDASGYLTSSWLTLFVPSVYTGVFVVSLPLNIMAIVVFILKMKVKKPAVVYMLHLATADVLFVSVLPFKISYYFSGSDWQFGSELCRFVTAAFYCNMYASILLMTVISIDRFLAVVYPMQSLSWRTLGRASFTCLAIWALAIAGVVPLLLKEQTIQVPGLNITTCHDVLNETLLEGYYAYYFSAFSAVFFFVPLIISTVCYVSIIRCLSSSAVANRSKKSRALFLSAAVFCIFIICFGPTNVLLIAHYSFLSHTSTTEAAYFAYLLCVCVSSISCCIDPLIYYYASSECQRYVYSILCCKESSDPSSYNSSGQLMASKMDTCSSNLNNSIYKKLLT

IC50	SMILES
21.9 nM	CC(=O)N(C(=O)/C=C/c1ccccc1)[C@@H](Cc1ccc(F)cc1)C(=O)N[C@@H](Cc1ccc(NC(=N)N)cc1)C(=O)N[C@@H](CC(C)C)C(=O)N[C@@H](CCCN=C(N)N)C(=O)N[C@@H](CCCN)C(=O)CCC(N)=O
44 nM	CC(=O)N(C(=O)/C=C/c1ccccc1)[C@@H](Cc1ccc(F)cc1)C(=O)N[C@@H](Cc1ccc(NC(=N)N)cc1)C(=O)N[C@@H](CC(C)C)C(=O)N[C@@H](CCCN)C(=O)CC(N)=O
870 nM	CC(=O)N(C(=O)/C=C/c1ccccc1)[C@@H](Cc1ccc(F)cc1)C(=O)N[C@@H](Cc1ccc(NC(=N)N)cc1)C(=O)N[C@@H](CCCN)C(N)=O
110 nM	CC(=O)N(C(=O)/C=C/c1ccccc1)[C@@H](Cc1ccc(F)cc1)C(=O)N[C@@H](Cc1ccc(NC(=N)N)cc1)C(=O)N[C@@H](CC(C)C)C(N)=O
320 nM	CC(=O)N(C(=O)/C=C/c1ccccc1)[C@@H](Cc1ccc(F)cc1)C(=O)N[C@@H](CCCN=C(N(C)C)N(C)C)C(=O)N[C@@H](CC(C)C)C(=O)N[C@@H](CCCN=C(N)N)C(N)=O
16.6 nM	CC(=O)N(C(=O)/C=C/c1ccccc1)[C@@H](Cc1ccc(F)cc1)C(=O)N[C@@H](Cc1ccc(NC(=N)N)cc1)C(=O)N[C@@H](CC(C)C)C(=O)N[C@@H](CCCN=C(N)N)C(=O)N[C@@H](CCCN)C(=O)CC(N)=O
130 nM	CC(=O)N(C(=O)/C=C/c1ccccc1)[C@@H](Cc1ccc(F)cc1)C(=O)N[C@@H](CCCCN=C(N(C)C)N(C)C)C(=O)N[C@@H](CC(C)C)C(=O)N[C@@H](CCCN=C(N)N)C(N)=O
> 30000 nM	CC(=O)N(CC(=O)N[C@@H](Cc1ccc(NC(=N)N)cc1)C(=O)N[C@@H](CC(C)C)C(=O)N[C@@H](CCCN=C(N)N)C(N)=O)C(=O)/C=C/c1ccccc1
39 nM	CC(=O)N(C(=O)/C=C/c1ccccc1)[C@@H](Cc1ccc(F)cc1)C(=O)N[C@@H](CCCCN)C(=O)N[C@@H](CC(C)C)C(=O)N[C@@H](CCCN=C(N)N)C(N)=O
295 nM	CC(=O)N(C(=O)Cc1ccc2ccccc2c1)[C@@H](Cc1ccc(F)cc1)C(=O)N[C@@H](Cc1ccc(NC(=N)N)cc1)C(=O)N[C@@H](CC(C)C)C(=O)N[C@@H](CCCN=C(N)N)C(N)=O
2320 nM	CC(=O)N(C(=O)c1cccc(C2CCCCC2)c1)[C@@H](Cc1ccc(F)cc1)C(=O)N[C@@H](Cc1ccc(NC(=N)N)cc1)C(=O)N[C@@H](CC(C)C)C(=O)N[C@@H](CCCN=C(N)N)C(N)=O
310 nM	CC(=O)N(c1ccsc1)[C@@H](Cc1ccc(F)cc1)C(=O)N[C@@H](Cc1ccc(NC(=N)N)cc1)C(=O)N[C@@H](CC(C)C)C(=O)N[C@@H](CCCN=C(N)N)C(N)=O
560 nM	CC(=O)N(c1ccccc1F)[C@@H](Cc1ccc(F)cc1)C(=O)N[C@@H](Cc1ccc(NC(=N)N)cc1)C(=O)N[C@@H](CC(C)C)C(=O)N[C@@H](CCCN=C(N)N)C(N)=O
19 nM	CC(=O)N(C(=O)CSc1ccccc1)[C@@H](Cc1ccc(F)cc1)C(=O)N[C@@H](Cc1ccc(NC(=N)N)cc1)C(=O)N[C@@H](CC(C)C)C(=O)N[C@@H](CCCN=C(N)N)C(N)=O

More lines, now with the values behind:

SMILES	IC50
CC(=O)N(C(=O)c1ccc(-c2ccccc2)cc1)[C@@H](Cc1ccc(F)cc1)C(=O)N[C@@H](Cc1ccc(NC(=N)N)cc1)C(=O)N[C@@H](CC(C)C)C(=O)N[C@@H](CCCN=C(N)N)C(N)=O	46 nM
COc1ccc(/C=C/C(=O)N(C(C)=O)[C@@H](Cc2ccc(F)cc2)C(=O)N[C@@H](Cc2ccc(NC(=N)N)cc2)C(=O)N[C@@H](CC(C)C)C(=O)N[C@@H](CCCN=C(N)N)C(N)=O)cc1	40 nM
CC(=O)N(C(=O)/C=C/c1ccccc1)[C@@H](Cc1ccc(F)cc1)C(=O)N[C@@H](Cc1ccc(NC(=N)N)cc1)C(=O)N[C@@H](CC(C)C)C(=O)N[C@@H](CCCN)C(N)=O	17 nM
CC(=O)N(c1cccs1)[C@@H](Cc1ccc(F)cc1)C(=O)N[C@@H](Cc1ccc(NC(=N)N)cc1)C(=O)N[C@@H](CC(C)C)C(=O)N[C@@H](CCCN=C(N)N)C(N)=O	260 nM
CC(=O)N(C(=O)/C=C/c1cccc(Cl)c1)[C@@H](Cc1ccc(F)cc1)C(=O)N[C@@H](Cc1ccc(NC(=N)N)cc1)C(=O)N[C@@H](CC(C)C)C(=O)N[C@@H](CCCN=C(N)N)C(N)=O	41 nM
CC(=O)N(c1c[nH]c2ccccc12)[C@@H](Cc1ccc(F)cc1)C(=O)N[C@@H](Cc1ccc(NC(=N)N)cc1)C(=O)N[C@@H](CC(C)C)C(=O)N[C@@H](CCCN=C(N)N)C(N)=O	500 nM
CC(=O)N(C(=O)/C=C/c1ccccc1)[C@@H](Cc1ccc(F)cc1)C(=O)N[C@@H](Cc1ccc(N)cc1)C(=O)N[C@@H](CC(C)C)C(=O)N[C@@H](CCCN=C(N)N)C(N)=O	370 nM
CC(=O)N(C1CCCC1)[C@@H](Cc1ccc(F)cc1)C(=O)N[C@@H](Cc1ccc(NC(=N)N)cc1)C(=O)N[C@@H](CC(C)C)C(=O)N[C@@H](CCCN=C(N)N)C(N)=O	370 nM
CC(=O)N(C(=O)/C=C/c1ccccc1)[C@@H](Cc1ccc(F)cc1)C(=O)N[C@@H](Cc1ccc(NC(=N)N)cc1)C(N)=O	780 nM
CC(=O)N(C(=O)/C=C/c1ccc(Cl)cc1)[C@@H](Cc1ccc(F)cc1)C(=O)N[C@@H](Cc1ccc(NC(=N)N)cc1)C(=O)N[C@@H](CC(C)C)C(=O)N[C@@H](CCCN=C(N)N)C(N)=O	99 nM
COc1ccc(C[C@H](NC(=O)[C@H](Cc2ccc(F)cc2)N(C(C)=O)C(=O)/C=C/c2ccccc2)C(=O)N[C@@H](CC(C)C)C(=O)N[C@@H](CCCN=C(N)N)C(N)=O)cc1	1180 nM
CC(=O)N(C(=O)/C=C/c1ccccc1)[C@@H](Cc1ccc(F)cc1)C(=O)N[C@@H](Cc1ccc(NC(=N)N)cc1)C(=O)N[C@@H](CC(C)C)C(=O)N[C@@H](CCCN=C(N)N)C(N)=O	7.8 nM
CC(=O)N(C(=O)/C=C/c1ccccc1)[C@@H](Cc1ccc(F)cc1)C(=O)N[C@@H](CCN=C(N(C)C)N(C)C)C(=O)N[C@@H](CC(C)C)C(=O)N[C@@H](CCCN=C(N)N)C(N)=O	340 nM
CC(=O)N(c1cccnc1)[C@@H](Cc1ccc(F)cc1)C(=O)N[C@@H](Cc1ccc(NC(=N)N)cc1)C(=O)N[C@@H](CC(C)C)C(=O)N[C@@H](CCCN=C(N)N)C(N)=O	950 nM
CCCC(=O)c1ccc(N(C(C)=O)[C@@H](Cc2ccc(F)cc2)C(=O)N[C@@H](Cc2ccc(NC(=N)N)cc2)C(=O)N[C@@H](CC(C)C)C(=O)N[C@@H](CCCN=C(N)N)C(N)=O)cc1	1260 nM
CC(=O)N(C(=O)/C=C/c1ccc(N)cc1)[C@@H](Cc1ccc(F)cc1)C(=O)N[C@@H](Cc1ccc(NC(=N)N)cc1)C(=O)N[C@@H](CC(C)C)C(=O)N[C@@H](CCCN=C(N)N)C(N)=O	61 nM

SMILES	IC50
CC(=O)N(C(=O)c1cc2ccccc2oc1=O)[C@@H](Cc1ccc(F)cc1)C(=O)N[C@@H](Cc1ccc(NC(=N)N)cc1)C(=O)N[C@@H](CC(C)C)C(=O)N[C@@H](CCCN=C(N)N)C(N)=O	4330 nM
C=CC(=O)c1ccsc1N(C(C)=O)[C@@H](Cc1ccc(F)cc1)C(=O)N[C@@H](Cc1ccc(NC(=N)N)cc1)C(=O)N[C@@H](CC(C)C)C(=O)N[C@@H](CCCN=C(N)N)C(N)=O	23 nM
CC(=O)N(c1ccc(F)cc1)[C@@H](Cc1ccc(F)cc1)C(=O)N[C@@H](Cc1ccc(NC(=N)N)cc1)C(=O)N[C@@H](CC(C)C)C(=O)N[C@@H](CCCN=C(N)N)C(N)=O	350 nM
CC(=O)N(Oc1c[nH]c2ccccc12)[C@@H](Cc1ccc(F)cc1)C(=O)N[C@@H](Cc1ccc(NC(=N)N)cc1)C(=O)N[C@@H](CC(C)C)C(=O)N[C@@H](CCCN=C(N)N)C(N)=O	130 nM
CC(=O)N(C(=O)COc1ccccc1)[C@@H](Cc1ccc(F)cc1)C(=O)N[C@@H](Cc1ccc(NC(=N)N)cc1)C(=O)N[C@@H](CC(C)C)C(=O)N[C@@H](CCCN=C(N)N)C(N)=O	21 nM
CC(C)C[C@H](NC(=O)[C@@H](N)CCCN=C(N)N)C(=O)N[C@@H](CCCN)C(=O)N[C@@H](Cc1ccc(F)cc1)C(=O)NC(=O)/C=C/c1ccccc1	170 nM
CC(=O)N(C(=O)/C=C/c1ccccc1)[C@@H](Cc1ccccc1)C(=O)N[C@@H](Cc1ccc(NC(=N)N)cc1)C(=O)N[C@@H](CC(C)C)C(=O)N[C@@H](CCCN=C(N)N)C(N)=O	24 nM
CC(=O)N(C(=O)/C=C/c1ccccc1)[C@@H](Cc1ccc(F)cc1)C(=O)NC(=O)NCCC[C@H](NC(=O)[C@H](CC(C)C)NC(=O)[C@@H](N)CCCN=C(N)N)C(=O)O	1040 nM
CC(=O)N(C(=O)/C=C/c1ccccc1)[C@@H](Cc1ccc(F)cc1)C(=O)N[C@@H](Cc1cccnc1)C(=O)N[C@@H](CC(C)C)C(=O)N[C@@H](CCCN=C(N)N)C(N)=O	340 nM
CC(=O)N(C(=O)/C=C/c1ccccc1)[C@@H](Cc1ccc(F)cc1)C(=O)N[C@@H](Cc1ccc([N+](=O)[O-])cc1)C(=O)N[C@@H](CC(C)C)C(=O)N[C@@H](CCCN=C(N)N)C(N)=O	7550 nM
CC(=O)N(C(=O)/C=C/c1ccccc1)[C@@H](Cc1ccc(F)cc1)C(=O)N[C@@H](Cc1ccccc1)C(=O)N[C@@H](CC(C)C)C(=O)N[C@@H](CCCN=C(N)N)C(N)=O	1120 nM
CC(=O)N(C(=O)/C=C/c1ccccc1)[C@@H](Cc1ccc(F)cc1)C(=O)N[C@@H](Cc1ccc(Cl)cc1)C(=O)N[C@@H](CC(C)C)C(=O)N[C@@H](CCCN=C(N)N)C(N)=O	4710 nM
CC(=O)N(C(=O)/C=C/c1ccc(O)cc1)[C@@H](Cc1ccc(F)cc1)C(=O)N[C@@H](Cc1ccc(NC(=N)N)cc1)C(=O)N[C@@H](CC(C)C)C(=O)N[C@@H](CCCN=C(N)N)C(N)=O	62 nM
CC(=O)N(Oc1cccs1)[C@@H](Cc1ccc(F)cc1)C(=O)N[C@@H](Cc1ccc(NC(=N)N)cc1)C(=O)N[C@@H](CC(C)C)C(=O)N[C@@H](CCCN=C(N)N)C(N)=O	220 nM
CCC(=O)c1cccc(N(C(C)=O)[C@@H](Cc2ccc(F)cc2)C(=O)N[C@@H](Cc2ccc(NC(=N)N)cc2)C(=O)N[C@@H](CC(C)C)C(=O)N[C@@H](CCCN=C(N)N)C(N)=O)c1	42 nM
